Values quoted from earlier work, collected in US6673157B1, “Methods for stripping paint with DMSO containing compositions” (Gaylord Chemical Corporation, priority 2000, dated 2004).

Key:
[1] = pure substance
[2] = applied to intact human skin in vivo; abrupt fall-off below 70%
[3] = DMSO concentrations as high as 40%; living human skin

| Structure (SMILES) | LD50 oral rat toxicity | Rate of penetration of animal skin [1] | DMSO concentration at which it penetrates intact skin to the blood vessels [2] [%] | Effect of DMSO on rate of skin penetration of octyl acetate [3] |
| --- | --- | --- | --- | --- |
| CC(=O)OC(C)(C)C [t-butyl acetate] | about 4500 mg per kilogram |  |  |  |
| O [water, reference compound] |  | approximately 14.8±0.1 g/m^2/hr |  |  |
| C[S+](C)[O-] [DMSO, dimethyl sulfoxide] | approximately 17,400 milligrams per kilogram | approximately 176±42 g/m^2/hr | ≥ 70 | did not increase the rate of skin penetration of octyl acetate |
